Molecules are shown by their SMILES.

Assay [1] concerns H3K27me3 in HCT116 cells. The experiment in a line: hmqChIP quantification of global H3K27me3 level after drug treatment, HCT116. The assay is classed as cell-based, human. The conditions noted are these: 0.5 uM/5 uM, 40 h, anti-H3K27me3 ChIP. The procedure: (§1) A highly multiplexed experiment profiling global levels of three histone modifications in 96 samples: Two different cancer cell lines (human colon cancer HCT116, human osteosarcoma U2OS) were treated with 11 different drugs at 2 concentrations each (low, high) or DMSO as a control. Two replicates each (rep1, rep2) were performed of each treatment, totaling 96 samples. For U2OS, 9000 cells were seeded per 96-well, For HCT116, 6000 cells were seeded. After 24 h, drugs were added to each well, using the concentration specified in the following table:
(§2) After further growth for 40 h, the cell number was approx. 50 000 cells per well. […]
(§3) The final libraries were sequenced twice, to test the influence of sequencing two different random set of molecules on the quantification of global levels (that only scarcely covering the genome). The first time ˜1 Mio reads were sequenced in total for the four sub-pools (3 ChIP, 1 input), approximately 250 000 per sub-pool. […] The second time at total of 25 Mio reads were collected and either all of the reads were analyzed, or only a randomly selected subset of 1 mio reads. When all reads were analyzed, it corresponds to approx. 260,416 reads per sample. Input-normalized unique read count (INRCs) using DMSO controls as reference were calculated as described in Example 2 and plotted in a heatmap with grayscale and circle size reflecting the INRC.

Assay [2] has as its system H3K27me3 in mouse embryonic stem cells. The conditions noted are these: dataset according to Kumar and Elsässer 2019; cited from earlier work.
Assay [3] deals with H3K27ac. In words: hmqChIP quantification of global H3K27ac level after drug treatment. The assay is classed as cell-based, human. The conditions noted are these: HCT116 and U2OS cells, 0.5 uM/5 uM, 40 h, anti-H3K27ac ChIP. The protocol:
as §1, §2, §3

In assay [4] the test system is H3K27me3 in U2OS cells. The experiment in a line: hmqChIP quantification of global H3K27me3 level after drug treatment, U2OS. In kind it is cell-based, human. The conditions noted are these: 0.5 uM/5 uM, 40 h, anti-H3K27me3 ChIP. The protocol: as §1, §2, §3

With `CCN(c1cc(C#CCN2CCOCC2)cc(C(=O)NCc2c(C)cc(C)[nH]c2=O)c1C)[C@H]1CC[C@H](N(C)CCOC)CC1` [EPZ011989], the “global H3K27me3 level (INRC relative to DMSO control)” value in assay [1] is “decrease H3K27me3”.

Turning to `CCOC(=O)CCNc1cc(N2CCc3ccccc3CC2)nc(-c2ccccn2)n1` [GSK-J4], in assay [2], the “H3K27me3 level of treated mESC used as calibration cell source” value was “increase H3K27me3 above physiologic levels”.

For the compound `O=C(CCCCCCC(=O)Nc1ccccc1)NO` [SAHA], the “global H3K27ac level (INRC relative to DMSO control)” value in assay [3] is “increase H3K27ac acetylation”.

`CC(NC(=O)c1ccccc1/N=C/c1c(O)ccc2ccccc12)c1ccccc1` (centres unmarked) [Sirtinol]: the “global H3K27me3 level (INRC relative to DMSO control)” value in assay [4] is “decreases H3K27me3”. The “global H3K27ac level (INRC relative to DMSO control)” value in assay [3] was “increase H3K27ac acetylation”.
